Columns and labels:
[1] = system: human hippocampal stem cells; assay: Neurogenesis, TuJ1 immunostaining / Hoechst (primary screen); assay type: cell-based
Excerpt: FIG. 2 is a bar graph illustrating an example of a neurogenesis profile of compounds selected from primary screening. After seven days of compound treatment, the cells were stained with the neuron-specific anti-tubulin IIIb antibody. TuJ1, for neurons and Hoechst for all cell nuclei. Shown are the relative ratio of neuron: total cells for each compound over the vehicle control in percentage. Typical ratio for vehicle control is 40-50% neurons. The ratio can change by either increased differentiation of stem cells to neurons, decreased proliferation of astrocytes, or increased proliferation of neuronal progenitors.
FIG. 3 is a bar graph illustrating an example of a neurogenesis profile of compounds selected from primary screening. After seven days of compound treatment, the cells were stained with TuJ1 for neurons. The number of TuJ1+ neurons per area was quantified and expressed as a relative value to the vehicle treated control.
The final neuron number is detected by immunostaining of the culture with antibodies against neurons and is quantified by counting of the immunopositive neurons and/or by measuring the staining intensity. Therefore, after seven days of compound treatment, the cells are stained with the neuron-specific anti-tubulin IIIb antibody, TuJ1, for neurons and Hoechst for all cell nuclei. The number of TuJ1+ neurons per area is quantified and expressed as a value relative to the vehicle-treated control of Hoechst-stained cells. In this regard, the medium is removed from the wells by decanting and blotting the plates on paper towels. The cells are then fixed in 100 μl of 4% paraformaldehyde per well for thirty minutes at room temperature. The cells are washed three times with 400 μl per well of phosphate-buffered saline (PBS) at pH 7.5 for approximately ten minutes per wash. The plates are then stored at 4° C. in PBS or used immediately for staining.
The cells are subsequently stained with antibodies against neuron-specific antigens according to standard procedures. The staining process includes decanting the PBS and blocking the cells with 100 μl of 5% Normal Goat Serum (NGS) in PBS for one hour at room temperature. The NGS/PBS is decanted and the plates are blotted on a paper towel. The cells are then permeabilized with 0.1% Triton X-100 in PBS for 30 minutes at room temperature.
Typical neuron-specific antigens include Type III-beta tubulin and MAP-2c. The total cell number in each well was quantified by staining the cultures with a nuclear dye such as DAPI or Hoechst according to standard procedures. Therefore, once the cells are permeabilized, 20 μl of TuJ1, monoclonal antibody against neuronal class 111 β-tubulin (CoVance (BabCo) MMS-435P) and 32 μl of anti-GFAP polyclonal (DAKO Z0334) are added to and mixed of PBS with 5% NGS. Final dilutions of TuJ1 and anti-GFAP are 1:400 and 1:250, respectively. 90 μl of the antibody solution is added to each well except two eleventh column. 90 μl of PBS/5% NGS is added to the eleventh column and no cells are added to the twelfth column. The plate(s) are sealed with parafilm and incubated at 4° C. overnight.
After incubating the cells overnight, the antibody solution is decanted and 200 μl of PBS/0.1% Triton X-100 is added to the wells. The plate(s) are placed on a shaker and incubated at room temperature with gentle shaking for ten minutes. The cells are again washed with the PBS/Triton X-100 solution another two times.
Following staining with TuJ1 and anti-GFAP, 20 μl of Alexa Fluor 488 labeled goat anti-moose IgG (H+L) (Molecular Probes A-11001) and 100 μl of LRSC-IgG, goat anti-rabbit (Jackson Immune 111-295-144) is added and mixed with 10 ml of PBS/5% NGS. 100 μl of the resulting antibody solution is added to each well. The plate(s) are covered with foil and incubated with gentle shaking for up to one hour at room temperature. The cells are again washed as described above with PBS and an Triton X-100. […]

[2] = system: human hippocampal stem cells; conditions: positive control; as described in U.S. Ser. No. 10/728,652; cited from earlier work

Compound	Activity in primary in vitro neurogenesis screen [1]	Increase of the number of neurons and glia [2]
COc1ccc(C2CNC(=O)C2)cc1OC1CCCC1 (centres unmarked) [Rolipram, reference compound]	effective	
LIF: leukemia inhibitory factor (LIF), a cytokine growth factor, positive control		two to three-fold

From patent publication US8846914B2, “Compositions to effect neuronal growth” (Neuralstem, Inc., priority 2003, dated 2014)
